According to ChEMBL document CHEMBL3877316, “Synthesis of pharmacologically important naphthoquinones and anticancer activity of 2-benzyllawsone through DNA topoisomerase-II inhibition” (Bioorg Med Chem, 2017):

Legend:
[1] = Antiproliferative activity against human DU145 cells after 48 hrs by SRB assay; type: functional, cell-based; conditions: DU-145, 48 h
[2] = Antiproliferative activity against HEK293 cells after 48 hrs by SRB assay; type: cell-based; conditions: Homo sapiens, HEK293, 48 h
[3] = Antiproliferative activity against human A549 cells after 48 hrs by SRB assay; type: functional, cell-based; conditions: A549, 48 h
[4] = Antiproliferative activity against human MCF7 cells after 48 hrs by SRB assay; type: functional, cell-based; conditions: MCF7, 48 h
[5] = Antiproliferative activity against human FADU cells after 48 hrs by SRB assay; type: functional, cell-based
FaDu = assay: Inhibition of topoisomerase-2 in human FADU cells at 2 times antiproliferative IC50 after 24 hrs by ELISA relative to control; type: cell-based
[6] = Antiproliferative activity against human DLD1 cells after 48 hrs by SRB assay; type: functional, cell-based; conditions: DLD-1, 48 h

Row | Structure (SMILES) | IC50 [1] | IC50 [2] | IC50 [3] | IC50 [4] | IC50 [5] | inhibition (FaDu) | IC50 [6]
1 | CCOC(=O)COC1=CC(=O)c2ccccc2C1=O | > 30 µM | > 150 µM | 15.5 µM | > 30 µM | 19.7 µM | 16.8% | > 30 µM
2 | COc1cc(COC2=CC(=O)c3ccccc3C2=O)cc(OC)c1OC | 25.2 µM | > 150 µM | 18.9 µM | > 30 µM | 16.5 µM | 14.7% | > 30 µM
3 | CC1(C)CCC2=C(O1)c1ccccc1C(=O)C2=O [LAPACHONE] | – | 25.3 µM | – | – | – | 53.9% | –
4 | COc1cc([C@@H]2c3cc4c(cc3[C@@H](O[C@@H]3O[C@@H]5CO[C@@H](C)O[C@H]5[C@H](O)[C@H]3O)[C@H]3COC(=O)[C@H]23)OCO4)cc(OC)c1O [ETOPOSIDE] | 10.6 µM | 7.51 µM | > 30 µM | > 30 µM | 16 µM | 51.7% | 8.11 µM
5 | CCOC(=O)COC1=C(CC(=O)OCC)C(=O)c2ccccc2C1=O | > 30 µM | > 150 µM | 21.1 µM | > 30 µM | 21.8 µM | 21.4% | > 30 µM
